Molecules are shown by their SMILES. Like-named read-outs stand apart in the source and are kept apart here.

In experiment [1] the test system is YMR4 yeast mutant deficient in two major extracellular phosphatases. As to the kind of experiment: Yeast drug selection growth assay. Format: cell-based, Saccharomyces cerevisiae. The procedure:
(§1) Yeast were grown at 30 C under conditions of constant selection for uracil auxotrophy. YNB (BiolOl, Vista, Calif.) supplemented with CSM (uracil dropout) and 2% glucose was used to grow strains having pVT101 constructs. Cycloheximide (Sigma Chemical, St. Louis, Mo.) was added to liquid media or spread on solid media to achieve a final concentration of 500 ng/ml. Nigericin (Sigma Chemical, St. Louis, Mo.) was added to liquid media or spread on solid media to achieve a final concentration of 25 μg/ml. Yeast strains used in cycloheximide selection assays were always propagated in the presence of the cycloheximide on plates and then streaked onto new plates containing drug or no drug, such that induced resistance existed in each strain at the time of the start of the assay. For selection assays on plates, single colonies were streaked; for selection in liquid media 0.01 ml of saturated culture was added to fresh media containing the drug. The plates shown in figures were grown for 3-5 days before photographs were taken. Yeast selection assays in liquid media were quantitated by turbidity as measured by absorbance at OD600.

Experiment [2] deals with wild-type yeast strain INVSC1. As to the kind of experiment: Yeast drug selection growth assay. It is filed as cell-based, Saccharomyces cerevisiae. The settings on record: cycloheximide 500 ng/ml. The procedure: as §1
Experiment [3] concerns wild-type Arabidopsis thaliana plants. Kind of experiment: Arabidopsis germination selection assay. The settings on record: cycloheximide 500 ng/ml alone or phosphatase inhibitor 1 mM alone, after 10-20 days. Format: in vivo. The procedure:
(§2) Arabidopsis seeds were sown in a solid germination media containing MS salts (Sigma Chemical, St. Louis, Mo.), 2% sucrose, 0.8% agar, and vitamins (Valvekens, D. et al., […], Proc. Natl. Acad. Sci. USA 85:5536-5540). For selection assays, one of the following, or a combination of both, was added to media (cooled to less than 50° C. before adding) immediately prior to pouring into plates: cycloheximide at a final concentration of 500 ng/ml; α,β-methyleneadenosine 5′-diphosphate at a final concentration of 1 mM. Plant growth was measured by germination percentage after 10-20 days. All other materials and methods were iscussed above in Example 2.

The test system of experiment [4] is AtPGP-1 overexpressing (MDR OE) Arabidopsis thaliana plants. Format: in vivo. The settings on record: AtPGP-1 overexpressing plants; cycloheximide 500 ng/ml alone or phosphatase inhibitor 1 mM alone; after 10-20 days. The procedure:
as §2

The test system of experiment [5] is wild-type yeast strain INVSC with plasmid pvt101-U. As to the kind of experiment: Increasing yeast sensitivity to fungicide (filter disk zone of inhibition). Format: cell-based, Saccharomyces cerevisiae. The settings on record: 48 hours. The procedure: Additional experiment were performed to test the ability of ecto-phosphatase inhibitors to increase the effectiveness of the commonly used fungicide chlorothalonil. Yeast was plated on media with or without an ecto-phosphatase inhibitor of Formula X where a paper filter disk soaked in the fungicide was added to the plate. After 48 hours, the zone of inhibition of yeast growth around the filter disk was calculated.
The wild-type yeast strain INVSC with plasmid pvt101-U (for selection on media lacking uracil) was used in all experiments and each experiment was performed in triplicate. Media used was made by combining YNB (Bio 101, Vista, Calif.), the drop out supplement CSM-URA (Bio 101, Vista, Calif.), and glucose in water. […]
Twenty μl of an overnight saturated culture of yeast was plated onto each plate, spread, and allowed to dry for 20 minutes. […] The zone of inhibition of yeast growth around the disk was assessed after 48 hours.
Plates with chlorothalonil disks indeed contained a zone of inhibition surrounding the disk. […] The zone of inhibition was calculated by measuring the radius from the center of the disk to the point of noticeable yeast growth (at least 10 measurements per plate), averaging the radii measurements, and using the average radius of the plates to calculate the circular area of the zone of inhibition.

Experiment [6] concerns yeast cells (YMR4 and INVSC, with or without AtPGP-1). Format: cell-based, Saccharomyces cerevisiae. The settings on record: 100 mM ATP, 48 hours. The procedure: To create drug resistant yeast strains, all four cell lines were grown up in the presence of 500 ng/ml of cycloheximide, and transferred to other cycloheximide containing plates after a period of four to six days. This transfer of cell lines and subculturing continued such that the yeast cells grew in the presence of cycloheximide for a period of at least a month.
Cells cultured in media alone: To create cell lines that had not been preselected for their ability to grow in drug, yeast strains were grown on plates containing YNB (Bio101, Vista, Calif.) without uracil (-URA) to maintain the presence of the vector (which supplies URA) without any drugs added.
Cells were transferred into 5 ml YNB -URA liquid media for turbidity measurements. All cell lines (both non-drug selected and drug-selected) were grown in media with the addition of either nothing, 500 ng/ml cycloheximide, 100 mM ATP, or 500 ng/ml cycloheximide and 100 mM ATP. Turbidity readings were taken after 48 hours.

Experiment [7] concerns acid phosphatase yeast mutant YMR4. As to the kind of experiment: Salvage pathway experiments in yeast (turbidity). It is filed as cell-based, Saccharomyces cerevisiae. The note with it: added to media with cycloheximide; 72 hours. The procedure: All cell lines were grown in liquid media either containing drug (for the drug selected lines) or not containing drug (for the non-drug selected lines). When the cultures reached a turbidity of 1.00 as measured at a wavelength of 600 in a spectrophotometer (OD600=1.00), 10 μl of each culture was then removed and placed in either media with nothing added, 3 mM potassium phosphate; 3 mM adenosine; 9 mM potassium phosphate and 3 mM adenosine (for controls); potassium phosphate and cycloheximide; adenosine and cycloheximide; adenosine, cycloheximide, and potassium phosphate. Cell cultures were further grown for 72 hours, and their turbidity was determined by OD600 readings on a spectrophotometer. Growth of cell lines for nigericin experiments: Drug selected lines were removed from cycloheximide containing plates and placed in 5 ml liquid media containing 5 ng/ml cycloheximide. Cell cultures were allowed to grow until they reached an OD600 reading of 1.00, and then 10 μl from each culture was removed and transferred to culture tubes containing 5 ml of liquid media and 25 μg/ml nigericin. OD600 readings were recorded daily for a period of up to 72 hours to determine growth.

The subject of experiment [8] is Arabidopsis thaliana WS wild-type plants. As to the kind of experiment: Increasing plant sensitivity to herbicides (adjuvant test). Format: in vivo. The settings on record: surflan with compound of Formula II at 5 μg/ml versus surflan alone. The procedure:
Arabidopsis thaliana WS wild-type plants were plated on germination media containing two commonly used herbicides, surflan and pendimethalin, in the presence and absence of an ecto-phosphatase inhibitor of Formula II and monitored for their growth in a 22° C. incubator under constant fluorescent illumination.
More specifically, germination media was prepared containing 20 μl/ml, 10 μl/ml, 2 μl/ml, 1 μl/ml, and 0.2 μl/ml of a surflan solution made at the manufacturer's recommended concentration. Compound of Formula II was added to a portion of the germination media at a final concentration of 5 μg/ml.
Arabidopsis thaliana WS wild-type seeds were surface sterilized in a 20% bleach solution for 20 minutes, washed three times in double distilled waster, and resuspended in 0.1% agarose solution. The seeds were then pipetted onto plates containing approximately 3 ml of germination media containing the various concentrations of surflan with and without compound of Formula II. All plates were placed in a 22° C. incubator under constant fluorescent illumination. Growth was assessed daily.

As for `C[C@@H]1C[C@@H]([C@H](O)CC2CC(=O)NC(=O)C2)C(=O)[C@@H](C)C1` [cycloheximide], the growth in drug result is “did not grow” in experiment [1] (cycloheximide 500 ng/ml) and “did grow” in experiment [2]. The germination rate worked out at 2% in experiment [3] and 50% in experiment [4].

With `N#Cc1c(Cl)c(Cl)c(Cl)c(C#N)c1Cl` [chlorothalonil], in experiment [5] (chlorothalonil by itself), the area of inhibition came out at 0.35 in^2. In addition, in experiment [5] (chlorothalonil disk, plates without ecto-phosphatase inhibitor), the “average radius of inhibition” value is on record as 0.33 in.

On to `Nc1ncnc2c1ncn2[C@@H]1O[C@H](COP(=O)(O)OP(=O)(O)OP(=O)(O)O)[C@@H](O)[C@H]1O` [ATP], for which the “growth in high levels of ATP” value in experiment [6] (cells not previously selected in drug) is “able to grow”; in experiment [6] (cells previously grown in cycloheximide, not overexpressing AtPGP-1) it was “not able to grow”.

For `Nc1ncnc2c1ncn2[C@@H]1O[C@H](CO)[C@@H](O)[C@H]1O` [adenosine], in experiment [7], the “effect on growth of cells overexpressing AtPGP-1 in drug” value is listed as “slightly inhibitory” and the “effect on resistance to cycloheximide” value is “did not enhance resistance”.

For `O=P(O)(O)O` [phosphate, potassium phosphate], in experiment [7], the “effect on growth of cells overexpressing AtPGP-1 in drug” value is reported as “slightly inhibitory” and the “effect on resistance to cycloheximide” value is “did not enhance resistance”.

For the compound `Cc1cccc(NS(=O)(=O)c2ccc(-c3ccccc3)cc2)c1` [Formula II], the “surflan concentration at which it is an equally effective weed killer” value in experiment [8] is “five fold less concentration”.

Take `Nc1ncnc2c1ncn2[C@@H]1O[C@H](COP(=O)(O)CP(=O)(O)O)[C@@H](O)[C@H]1O` [α,β-methyleneadenosine 5′-diphosphate]: the germination rate stood at 90% in experiment [3] and 83% in experiment [4].

Take `CO[C@@H]1C[C@@H](C[C@H]2CC[C@H](C)[C@H]([C@@H](C)C(=O)O)O2)O[C@]2(O[C@](C)([C@H]3CC[C@@](C)([C@@H]4O[C@@H]([C@H]5O[C@@](O)(CO)[C@H](C)C[C@@H]5C)C[C@@H]4C)O3)C[C@H]2C)[C@@H]1C` [nigericin]: in experiment [1] (nigericin 25 μg/ml, YMR4 containing vector alone), the growth in drug entry was “reduced growth”.

For the origin of these results see patent publication US20020103082A1, “Adjuvant activity through modulation of animal and plant cell membrane transport” (Board of Regents, The University of Texas System, priority 2000, published 2002).
